From patent US10662229B2, “Spider venom peptides and methods of use for modulating sodium channels” (priority 2016, dated 2020)
Where a SMILES comes first, the peptide text is derived from it. Bridges are numbered along the chain shown (N, C = ends). [ ]: non-standard residue; d: D form. Nle = CCCC[C@H](N)C(=O)O

Assays:
Type in all cases: cell-based
hNav1.8 = biological target: T1, hNav1.8 (Homo sapiens, UniProt Q9Y5Y9); assay: FLIPR membrane potential assay, hNav1.8; settings: for Selectivity for Nav1.7, Nav subtype 1.8: membrane potential assay
T1 construct: host or cells: HEK293
Description: (§1) HEK293 cells stably expressing hNav1.1, hNav1.2, hNav1.3, hNav1.4, hNav1.5, hNav1.6, hNav1.7 and […] (SB Drug Discovery, Glasgow, UK) were cultured in minimum essential media (MEM) containing 10% v/v FBS supplemented with L-glutamine (2 mM) and selection antibiotics G-418 (0.5 mg/mL), blasticidin (2-4 μg/mL) and zeocin (0.5 mg/mL) as recommended by the manufacturer. CHO cells stably expressing hNav1.8 in a tetracycline-inducible system (Chantest, OH, USA) were cultured in Ham's F-12 containing 10% v/v FBS and selection antibiotics as recommended by the manufacturer. To induce hNav1.8 expression, cells were cultured in the presence of tetracycline (1 μg/mL) for 24 h at 27° C. Cells were grown in a humidified 5% CO2 incubator at 37° C., grown to 70-80% confluence, and passaged every 3-4 days using TrypLE Express (Invitrogen).
(§2) Cells were plated 48 h before the assay on 384-well black walled imaging plates at a density of 10,000 to 15,000 cells per well and were loaded with red membrane potential dye for 30 min at 37° C. (Molecular Devices, CA, USA). One vial of bulk red membrane potential dye was reconstituted to a 10× stock solution with PSS and stored at −20° C. and diluted to 1× solution with PSS on the day of the assay. […] Changes in membrane potential were assessed using the FLIPR^TETRA (excitation 515 to 545 nm, emission 565 to 625 nm) every second for 300 s after adding agonists.

hNav1.7 = biological target: T2, hNav1.7 (Homo sapiens, UniProt Q15858); assay: FLIPR membrane potential assay, hNav1.7; settings: for Selectivity for Nav1.7, Nav subtype 1.7: membrane potential assay, reference subtype
T2 construct: host or cells: HEK293
T2 sequence (Q15858 whole entry): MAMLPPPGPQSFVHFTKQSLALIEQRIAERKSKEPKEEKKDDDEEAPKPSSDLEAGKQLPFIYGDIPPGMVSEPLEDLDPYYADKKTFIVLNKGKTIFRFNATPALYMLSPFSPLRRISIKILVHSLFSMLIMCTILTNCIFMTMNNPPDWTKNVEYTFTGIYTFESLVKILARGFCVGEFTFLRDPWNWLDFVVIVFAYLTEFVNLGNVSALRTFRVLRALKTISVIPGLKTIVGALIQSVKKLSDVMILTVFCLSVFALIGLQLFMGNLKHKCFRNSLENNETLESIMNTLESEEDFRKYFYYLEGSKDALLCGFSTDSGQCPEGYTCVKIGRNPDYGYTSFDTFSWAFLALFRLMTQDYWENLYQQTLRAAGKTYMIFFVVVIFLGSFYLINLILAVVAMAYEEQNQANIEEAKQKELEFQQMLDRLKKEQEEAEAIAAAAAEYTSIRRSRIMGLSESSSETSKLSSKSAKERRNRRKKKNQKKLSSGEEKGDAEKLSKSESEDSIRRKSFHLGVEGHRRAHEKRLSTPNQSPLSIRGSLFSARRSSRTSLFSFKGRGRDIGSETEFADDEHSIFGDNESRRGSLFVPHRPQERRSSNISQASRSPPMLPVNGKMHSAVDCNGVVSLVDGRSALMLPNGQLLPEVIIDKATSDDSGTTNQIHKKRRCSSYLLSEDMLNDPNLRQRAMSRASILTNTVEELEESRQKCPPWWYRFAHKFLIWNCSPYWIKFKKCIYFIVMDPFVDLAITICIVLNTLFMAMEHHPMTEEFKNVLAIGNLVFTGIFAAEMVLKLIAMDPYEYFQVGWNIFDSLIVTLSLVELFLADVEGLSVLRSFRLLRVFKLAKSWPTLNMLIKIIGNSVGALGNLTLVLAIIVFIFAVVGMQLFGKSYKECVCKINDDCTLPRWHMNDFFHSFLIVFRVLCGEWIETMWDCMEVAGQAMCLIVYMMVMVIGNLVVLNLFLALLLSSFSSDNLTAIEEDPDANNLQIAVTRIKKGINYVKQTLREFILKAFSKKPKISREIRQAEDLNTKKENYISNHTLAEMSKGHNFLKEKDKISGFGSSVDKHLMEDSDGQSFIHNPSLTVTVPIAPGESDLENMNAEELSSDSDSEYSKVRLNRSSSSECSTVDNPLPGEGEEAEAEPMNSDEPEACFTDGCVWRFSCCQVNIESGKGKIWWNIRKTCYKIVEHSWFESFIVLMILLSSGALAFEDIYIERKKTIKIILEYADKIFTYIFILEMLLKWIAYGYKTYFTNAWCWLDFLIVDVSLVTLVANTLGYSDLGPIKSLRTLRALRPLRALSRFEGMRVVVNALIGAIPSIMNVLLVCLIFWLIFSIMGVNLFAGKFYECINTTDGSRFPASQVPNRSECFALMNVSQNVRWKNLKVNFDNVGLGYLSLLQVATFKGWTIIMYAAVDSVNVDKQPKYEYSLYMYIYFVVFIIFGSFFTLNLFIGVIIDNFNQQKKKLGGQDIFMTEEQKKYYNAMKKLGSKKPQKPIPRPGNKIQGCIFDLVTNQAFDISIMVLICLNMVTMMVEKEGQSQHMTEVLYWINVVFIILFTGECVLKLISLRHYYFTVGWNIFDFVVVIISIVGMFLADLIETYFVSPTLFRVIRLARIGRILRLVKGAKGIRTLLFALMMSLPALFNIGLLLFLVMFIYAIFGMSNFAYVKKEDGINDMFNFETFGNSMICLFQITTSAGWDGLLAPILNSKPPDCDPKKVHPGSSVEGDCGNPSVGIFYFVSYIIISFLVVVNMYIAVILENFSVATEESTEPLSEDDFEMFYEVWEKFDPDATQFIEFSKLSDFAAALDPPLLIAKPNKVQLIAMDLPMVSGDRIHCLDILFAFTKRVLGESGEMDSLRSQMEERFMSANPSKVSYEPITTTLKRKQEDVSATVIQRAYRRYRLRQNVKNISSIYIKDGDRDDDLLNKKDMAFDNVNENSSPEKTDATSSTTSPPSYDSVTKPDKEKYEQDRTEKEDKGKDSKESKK
Description: as §1, §2

hNav1.2 = biological target: T3, hNav1.2 (Homo sapiens, UniProt Q99250); assay: FLIPR membrane potential assay, hNav1.2; settings: for Selectivity for Nav1.7, Nav subtype 1.2: membrane potential assay
T3 construct: host or cells: HEK293
Description: as §1, §2

hNav1.3 = biological target: T4, hNav1.3 (Homo sapiens, UniProt Q9NY46); assay: FLIPR membrane potential assay, hNav1.3; settings: for Selectivity for Nav1.7, Nav subtype 1.3: membrane potential assay
T4 construct: host or cells: HEK293
Description: as §1, §2

hNav1.1 = biological target: T5, hNav1.1 (Homo sapiens, UniProt P35498); assay: FLIPR membrane potential assay, hNav1.1; settings: for Selectivity for Nav1.7, Nav subtype 1.1: membrane potential assay
T5 construct: host or cells: HEK293
Description: as §1, §2

hNav1.6 = biological target: T6, hNav1.6 (Homo sapiens, UniProt Q9UQD0); assay: FLIPR membrane potential assay, hNav1.6; settings: for Selectivity for Nav1.7, Nav subtype 1.6: membrane potential assay
T6 construct: host or cells: HEK293
Description: as §1, §2

hNav1.5 = biological target: T7, hNav1.5 (Homo sapiens, UniProt Q14524); assay: FLIPR membrane potential assay, hNav1.5; settings: for Selectivity for Nav1.7, Nav subtype 1.5: membrane potential assay
T7 construct: host or cells: HEK293
T7 sequence (Q14524 whole entry): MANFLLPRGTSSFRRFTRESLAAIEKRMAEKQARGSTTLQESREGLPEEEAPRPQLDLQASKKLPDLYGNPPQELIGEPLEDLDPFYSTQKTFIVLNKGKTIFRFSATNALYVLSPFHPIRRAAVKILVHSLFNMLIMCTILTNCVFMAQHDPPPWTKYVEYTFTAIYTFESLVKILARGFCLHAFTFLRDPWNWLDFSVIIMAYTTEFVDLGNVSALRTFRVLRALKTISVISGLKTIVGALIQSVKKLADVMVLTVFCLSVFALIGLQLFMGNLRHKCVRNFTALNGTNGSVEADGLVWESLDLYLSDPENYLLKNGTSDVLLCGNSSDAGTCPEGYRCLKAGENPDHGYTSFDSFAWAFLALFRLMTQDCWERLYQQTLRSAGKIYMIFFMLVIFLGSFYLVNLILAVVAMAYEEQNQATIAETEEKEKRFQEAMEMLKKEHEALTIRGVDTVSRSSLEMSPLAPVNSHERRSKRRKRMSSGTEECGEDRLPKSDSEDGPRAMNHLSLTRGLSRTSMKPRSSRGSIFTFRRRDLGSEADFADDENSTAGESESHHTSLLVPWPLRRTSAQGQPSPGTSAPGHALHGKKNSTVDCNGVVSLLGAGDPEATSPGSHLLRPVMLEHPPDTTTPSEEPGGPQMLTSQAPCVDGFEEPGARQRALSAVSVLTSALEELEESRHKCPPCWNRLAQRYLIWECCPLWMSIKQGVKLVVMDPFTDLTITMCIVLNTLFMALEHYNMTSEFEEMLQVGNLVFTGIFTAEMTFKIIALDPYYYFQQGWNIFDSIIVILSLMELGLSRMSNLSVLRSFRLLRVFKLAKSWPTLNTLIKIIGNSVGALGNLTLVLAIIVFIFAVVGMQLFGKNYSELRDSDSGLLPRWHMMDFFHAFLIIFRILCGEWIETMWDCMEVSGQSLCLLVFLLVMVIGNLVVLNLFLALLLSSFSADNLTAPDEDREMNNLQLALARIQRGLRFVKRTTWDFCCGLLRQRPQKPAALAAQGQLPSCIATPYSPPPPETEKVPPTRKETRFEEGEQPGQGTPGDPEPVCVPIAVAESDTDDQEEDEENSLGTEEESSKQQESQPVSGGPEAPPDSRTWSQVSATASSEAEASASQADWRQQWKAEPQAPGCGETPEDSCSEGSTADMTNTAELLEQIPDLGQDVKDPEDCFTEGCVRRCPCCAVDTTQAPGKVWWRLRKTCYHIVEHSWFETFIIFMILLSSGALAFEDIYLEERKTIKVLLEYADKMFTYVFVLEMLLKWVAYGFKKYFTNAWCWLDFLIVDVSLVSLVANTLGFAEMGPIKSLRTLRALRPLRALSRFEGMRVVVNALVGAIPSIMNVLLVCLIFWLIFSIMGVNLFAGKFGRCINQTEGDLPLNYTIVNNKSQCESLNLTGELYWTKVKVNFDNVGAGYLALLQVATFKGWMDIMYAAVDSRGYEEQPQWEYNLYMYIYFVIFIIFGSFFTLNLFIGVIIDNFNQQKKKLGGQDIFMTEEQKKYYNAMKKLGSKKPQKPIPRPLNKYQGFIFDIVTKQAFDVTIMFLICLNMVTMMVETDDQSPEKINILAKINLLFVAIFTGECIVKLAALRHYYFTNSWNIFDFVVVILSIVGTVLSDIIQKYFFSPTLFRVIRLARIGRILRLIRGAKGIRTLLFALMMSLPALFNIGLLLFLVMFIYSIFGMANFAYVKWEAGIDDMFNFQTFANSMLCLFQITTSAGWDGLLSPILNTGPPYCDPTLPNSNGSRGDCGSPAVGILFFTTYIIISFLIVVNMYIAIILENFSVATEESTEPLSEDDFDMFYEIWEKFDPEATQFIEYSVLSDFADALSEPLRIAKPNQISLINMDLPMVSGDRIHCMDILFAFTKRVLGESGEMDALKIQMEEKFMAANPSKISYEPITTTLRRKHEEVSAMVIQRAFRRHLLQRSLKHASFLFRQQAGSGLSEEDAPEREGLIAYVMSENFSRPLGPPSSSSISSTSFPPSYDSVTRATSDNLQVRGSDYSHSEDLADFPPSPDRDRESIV
Description: as §1, §2

hNav1.4 = biological target: T8, hNav1.4 (Homo sapiens, UniProt P35499); assay: FLIPR membrane potential assay, hNav1.4; settings: for Selectivity for Nav1.7, Nav subtype 1.4: membrane potential assay
T8 construct: host or cells: HEK293
Description: as §1, §2

Row | SMILES | IC50 (hNav1.8) [µM] | Selectivity for Nav1.7, Nav subtype 1.8 (hNav1.8) | IC50 (hNav1.7) [µM] | Selectivity for Nav1.7, Nav subtype 1.7 (hNav1.7) | IC50 (hNav1.2) [µM] | Selectivity for Nav1.7, Nav subtype 1.2 (hNav1.2) | IC50 (hNav1.3) [µM] | Selectivity for Nav1.7, Nav subtype 1.3 (hNav1.3) | IC50 (hNav1.1) [µM] | Selectivity for Nav1.7, Nav subtype 1.1 (hNav1.1) | IC50 (hNav1.6) [µM] | Selectivity for Nav1.7, Nav subtype 1.6 (hNav1.6) | IC50 (hNav1.5) [µM] | Selectivity for Nav1.7, Nav subtype 1.5 (hNav1.5) | IC50 (hNav1.4) [µM] | Selectivity for Nav1.7, Nav subtype 1.4 (hNav1.4)
1 | CSCC[C@@H]1NC(=O)[C@H](Cc2ccc(O)cc2)NC(=O)[C@H](CCCNC(=N)N)NC(=O)[C@@H](NC(=O)[C@@H](N)CC(=O)O)CSSC[C@@H]2NC(=O)[C@@H]3CSSC[C@@H](C(=O)N[C@@H](C)C(=O)N[C@@H](Cc4c[nH]c5ccccc45)C(=O)N[C@@H](CC(=O)O)C(=O)N[C@@H](Cc4ccccc4)C(=O)N[C@H](C(=O)N[C@@H](Cc4ccccc4)C(=O)N[C@H](C(=O)O)[C@@H](C)O)[C@@H](C)O)NC(=O)[C@H](Cc4ccc(O)cc4)NC(=O)[C@H](CCCCN)NC(=O)[C@H](CCSC)NC(=O)[C@H](CCCCN)NC(=O)[C@H](CCCNC(=N)N)NC(=O)[C@H](CCCCN)NC(=O)[C@H](CSSC[C@H](NC(=O)[C@H](CCCCN)NC(=O)CNC(=O)[C@H](Cc4ccccc4)NC1=O)C(=O)N[C@@H](CCC(=O)O)C(=O)N[C@@H](CCCCN)C(=O)N[C@@H](CC(=O)O)C(=O)N[C@@H](CCC(=O)O)C(=O)N[C@@H](CC(=O)O)C(=O)N3)NC(=O)CNC(=O)[C@H](CC(C)C)NC(=O)[C@H](Cc1c[nH]cn1)NC(=O)[C@H](CCCCN)NC2=O [[D8K]Pnc1a] (H-DCRYMFGKCEKDEDCCKHLGCKRKMKYCAWDFTFT-OH; disulfide 2-16, 9-21, 15-28) | > 30 | >2000 | 0.013 | 1 | 0.04 | 3 | 2 | 159 | 0.241 | 19 | > 30 | >2000 | > 30 | >2000 | 0.663 | 52
2 | CSCC[C@@H]1NC(=O)[C@H](Cc2ccc(O)cc2)NC(=O)[C@H](CCCNC(=N)N)NC(=O)[C@@H](NC(=O)[C@@H](N)CC(=O)O)CSSC[C@@H]2NC(=O)[C@@H]3CSSC[C@@H](C(=O)N[C@@H](C)C(=O)N[C@@H](Cc4c[nH]c5ccccc45)C(=O)N[C@@H](CC(=O)O)C(=O)N[C@@H](Cc4ccccc4)C(=O)N[C@H](C(=O)N[C@@H](Cc4ccccc4)C(=O)N[C@H](C(=O)O)[C@@H](C)O)[C@@H](C)O)NC(=O)[C@H](Cc4ccc(O)cc4)NC(=O)[C@H](CCCCN)NC(=O)[C@H](CCSC)NC(=O)[C@H](CCCCN)NC(=O)[C@H](CCCNC(=N)N)NC(=O)[C@H](CCCCN)NC(=O)[C@H](CSSC[C@H](NC(=O)[C@H](CC(N)=O)NC(=O)CNC(=O)[C@H](Cc4ccccc4)NC1=O)C(=O)N[C@@H](CCC(=O)O)C(=O)N[C@@H](CCCCN)C(=O)N[C@@H](CC(=O)O)C(=O)N[C@@H](CCC(=O)O)C(=O)N[C@@H](CC(=O)O)C(=O)N3)NC(=O)CNC(=O)[C@H](CC(C)C)NC(=O)[C@H](Cc1c[nH]cn1)NC(=O)[C@H](CCCCN)NC2=O [[D8N]Pnc1a] (H-DCRYMFGNCEKDEDCCKHLGCKRKMKYCAWDFTFT-OH; disulfide 2-16, 9-21, 15-28) | > 30 | >1000 | 0.024 | 1 | 0.147 | 6 | 3 | 118 | 0.349 | 14 | > 30 | >1000 | > 30 | >1000 | 0.852 | 35
3 | CSCC[C@@H]1NC(=O)[C@H](Cc2ccc(O)cc2)NC(=O)[C@H](CCCNC(=N)N)NC(=O)[C@@H](NC(=O)[C@@H](N)CC(=O)O)CSSC[C@@H]2NC(=O)[C@@H]3CSSC[C@@H](C(=O)N[C@@H](C)C(=O)N[C@@H](Cc4c[nH]c5ccccc45)C(=O)N[C@@H](CC(=O)O)C(=O)N[C@@H](Cc4ccccc4)C(=O)N[C@H](C(=O)N[C@@H](Cc4ccccc4)C(=O)N[C@H](C(=O)O)[C@@H](C)O)[C@@H](C)O)NC(=O)[C@H](Cc4ccc(O)cc4)NC(=O)[C@H](CCCCN)NC(=O)[C@H](CCSC)NC(=O)[C@H](CCCCN)NC(=O)[C@H](CCCCN)NC(=O)[C@H](CCCCN)NC(=O)[C@H](CSSC[C@H](NC(=O)[C@H](CC(=O)O)NC(=O)CNC(=O)[C@H](Cc4ccccc4)NC1=O)C(=O)N[C@@H](CCC(=O)O)C(=O)N[C@@H](CCCCN)C(=O)N[C@@H](CC(=O)O)C(=O)N[C@@H](CCC(=O)O)C(=O)N[C@@H](CC(=O)O)C(=O)N3)NC(=O)CNC(=O)[C@H](CC(C)C)NC(=O)[C@H](Cc1c[nH]cn1)NC(=O)[C@H](CCCCN)NC2=O [[R23K]Pnc1a] (H-DCRYMFGDCEKDEDCCKHLGCKKKMKYCAWDFTFT-OH; disulfide 2-16, 9-21, 15-28) | > 30 | >120 | 0.251 | 1 | 3 | 14 | 5 | 19 | 8 | 33 | 16 | 63 | > 30 | >120 | 10 | 40
4 | CCCC[C@@H]1NC(=O)[C@H](Cc2ccc(O)cc2)NC(=O)[C@H](CCCNC(=N)N)NC(=O)[C@@H](NC(=O)[C@@H](N)CC(=O)O)CSSC[C@@H]2NC(=O)[C@@H]3CSSC[C@@H](C(=O)N[C@@H](C)C(=O)N[C@@H](Cc4c[nH]c5ccccc45)C(=O)N[C@@H](CC(=O)O)C(=O)N[C@@H](Cc4ccccc4)C(=O)N[C@H](C(=O)N[C@@H](Cc4ccccc4)C(=O)N[C@H](C(=O)O)[C@@H](C)O)[C@@H](C)O)NC(=O)[C@H](Cc4ccc(O)cc4)NC(=O)[C@H](CCCCN)NC(=O)[C@H](CCCC)NC(=O)[C@H](CCCCN)NC(=O)[C@H](CCCNC(=N)N)NC(=O)[C@H](CCCCN)NC(=O)[C@H](CSSC[C@H](NC(=O)[C@H](CC(=O)O)NC(=O)CNC(=O)[C@H](Cc4ccccc4)NC1=O)C(=O)N[C@@H](CCC(=O)O)C(=O)N[C@@H](CCCCN)C(=O)N[C@@H](CC(=O)O)C(=O)N[C@@H](CCC(=O)O)C(=O)N[C@@H](CC(=O)O)C(=O)N3)NC(=O)CNC(=O)[C@H](CC(C)C)NC(=O)[C@H](Cc1c[nH]cn1)NC(=O)[C@H](CCCCN)NC2=O [[M5,25Nle]Pnc1a] (H-DCRY[Nle]FGDCEKDEDCCKHLGCKRK[Nle]KYCAWDFTFT-OH; disulfide 2-16, 9-21, 15-28) | > 30 | >260 | 0.116 | 1 | 0.773 | 7 | 1 | 10 | 2 | 17 | 5 | 41 | > 30 | >260 | 3 | 22
5 | CSCC[C@@H]1NC(=O)[C@H](Cc2ccc(O)cc2)NC(=O)[C@H](CCCNC(=N)N)NC(=O)[C@@H](NC(=O)[C@@H](N)CC(=O)O)CSSC[C@@H]2NC(=O)[C@@H]3CSSC[C@@H](C(=O)N[C@@H](C)C(=O)N[C@@H](C)C(=O)N[C@@H](CC(=O)O)C(=O)N[C@@H](Cc4ccccc4)C(=O)N[C@H](C(=O)N[C@@H](Cc4ccccc4)C(=O)N[C@H](C(=O)O)[C@@H](C)O)[C@@H](C)O)NC(=O)[C@H](Cc4ccc(O)cc4)NC(=O)[C@H](CCCCN)NC(=O)[C@H](CCSC)NC(=O)[C@H](CCCCN)NC(=O)[C@H](CCCNC(=N)N)NC(=O)[C@H](CCCCN)NC(=O)[C@H](CSSC[C@H](NC(=O)[C@H](CC(=O)O)NC(=O)CNC(=O)[C@H](Cc4ccccc4)NC1=O)C(=O)N[C@@H](CCC(=O)O)C(=O)N[C@@H](CCCCN)C(=O)N[C@@H](CC(=O)O)C(=O)N[C@@H](CCC(=O)O)C(=O)N[C@@H](CC(=O)O)C(=O)N3)NC(=O)CNC(=O)[C@H](CC(C)C)NC(=O)[C@H](Cc1c[nH]cn1)NC(=O)[C@H](CCCCN)NC2=O [[W30A]Pnc1a] (H-DCRYMFGDCEKDEDCCKHLGCKRKMKYCAADFTFT-OH; disulfide 2-16, 9-21, 15-28) | > 30 | 4 | 7 | 1 | 24 | 3 | 11 | 2 | 15 | 2 | > 30 | 4 | 6 | 0.9 | 12 | 2
